Experimental findings from patent US10046005B2, “Composition and method of use for combinations of anti-viral protease, polymerase inhibitors and natural bioactive compounds in the treatment of hepatitis C infection” (priority 2014, dated 2018) are described below.

Data set [1] concerns HCV. Kind of data set: HCV viral entry into human host cells. It is filed as cell-based.
A short description of data set [2]: Dissolution of Catvira film coated tablets (Ribavirin and Sofosbuvir released). In kind it is physicochemical. The protocol:
• 1.1. Description: Yellow to deep yellow, oblong, biconvex, film coated tablets • 1.2. Determination of Average of Weight: (Limit: 1000 mg±5%) Proceed as BP2014 • 1.3. Determination of Disintegration Time: (Limit: NMT 30 min) Proceed as USP 35 • 1.4. Determination of Dissolution test for Sofosbuvir and Ribavirin:— Conditions of Dissolution:— • USP Apparatus: II (Paddle) • Speed: […] & Materials:— • Methanol HPLC Grade. • Acetonitrile HPLC Grade • Tetrahydrofuran HPLC Grade. • Ammonium acetate • Sofosbuvir and Ribavirin working standard. Apparatus & Equipement:— • Calibrated Analytical balance accurate to±0.1 mg • HPLC:—Waters UV detector or equivalent • Column: Symmetry (C18 (5 μm) 4.6×250 mm) or equivalent. • Sonicator with temperature control • Volumetric flasks • Pipettes class A Chromatographic Conditions:— • Column: Symmetry (C18 (5 μm) 4.6×250 mm) or equivalent. • Flow rate: 0.8 ml/min. • Detector: UV at λ242 nm • Injection volume: 10 μl • Mobile phase: (Acetonitrile: Tetrahydrofuran: Ammonium Acetate) (10:40:50) • Acetate Buffer: into 1000 ml volumetric flask, weight 1 gm of Ammonium Acetate buffer, add 900 ml purified water shake to dissolve then complete to the volume by the same solvent, adjust pH 3.5 by Glacial Acetic acid. […]

`O=C(O[C@@H]1Cc2c(O)cc(O)cc2O[C@@H]1c1cc(O)c(O)c(O)c1)c1cc(O)c(O)c(O)c1` [EGCG, (−)-Epigallocatechin Gallate]: in data set [1], the “HCV viral entry into human host cells” value was “effectively suppressed”.
For `NC(=O)c1ncn([C@@H]2O[C@H](CO)[C@@H](O)[C@H]2O)n1` [Ribavirin, 1-[(2R,3R,4S,5R)-3,4-dihydroxy-5-(hydroxymethyl)oxolan-2-yl]-1H-1,2,4-triazole-3-carboxamide], the Dissolution is 25.34% in data set [2] (pH 1.2, 5 min); 43.13% in data set [2] (pH 1.2, 10 min); 62.29% in data set [2] (pH 1.2, 15 min); 80.69% in data set [2] (pH 1.2, 20 min); 100.74% in data set [2] (pH 1.2, 30 min); 101.36% in data set [2] (pH 1.2, 45 min). Moreover, the Dissolution in data set [2] (pH 1.2, 60 min) stood at 101.87%; in data set [2] (pH 1.2, 90 min), 101.97%; in data set [2] (pH 4.5, 5 min), 29.46%; in data set [2] (pH 4.5, 10 min), 47.54%; in data set [2] (pH 4.5, 15 min), 68.75%; in data set [2] (pH 4.5, 20 min), 85.33%. In addition, the Dissolution came to 101.35% in data set [2] (pH 4.5, 30 min); 101.42% in data set [2] (pH 4.5, 45 min); 102.72% in data set [2] (pH 4.5, 60 min); 102.97% in data set [2] (pH 4.5, 90 min); 59.24% in data set [2] (pH 6.8, 5 min); 76.73% in data set [2] (pH 6.8, 10 min). In addition, the Dissolution in data set [2] (pH 6.8, 15 min) was determined as 88.40%; in data set [2] (pH 6.8, 20 min), 92.31%; in data set [2] (pH 6.8, 30 min), 93.23%; in data set [2] (pH 6.8, 45 min), 93.09%; in data set [2] (pH 6.8, 60 min), 93.31%; in data set [2] (pH 6.8, 90 min), 94.02%.
As for `CC(C)OC(=O)[C@H](C)N[P@](=O)(OC[C@H]1O[C@@H](n2ccc(=O)[nH]c2=O)[C@](C)(F)[C@@H]1O)Oc1ccccc1` [Sofosbuvir, Isopropyl (2S)-2-[(2R, 3R, 4R, 5R)-5-(2,4-dioxopyrimidin-1-yl)-4-fluoro-3-hydroxy-4-methyl-tetrahydrofuran-2-yl] methoxy-phenoxy-phosphoryl] amino] propanoate], the Dissolution came to 13.82% in data set [2] (pH 1.2, 5 min); 28.77% in data set [2] (pH 1.2, 10 min); 44.57% in data set [2] (pH 1.2, 15 min); 63.43% in data set [2] (pH 1.2, 20 min); 85.39% in data set [2] (pH 1.2, 30 min); 86.07% in data set [2] (pH 1.2, 45 min). For the same compound, the Dissolution in data set [2] (pH 1.2, 60 min) is listed as 88.13%; in data set [2] (pH 1.2, 90 min) it was 90.79%; in data set [2] (pH 4.5, 5 min) it was 15.00%; in data set [2] (pH 4.5, 10 min), 33.94%; in data set [2] (pH 4.5, 15 min) it was 52.46%; in data set [2] (pH 4.5, 20 min), 74.22%. In addition, the Dissolution in data set [2] (pH 4.5, 30 min) is recorded as 98.95%; in data set [2] (pH 4.5, 45 min), 100.44%; in data set [2] (pH 4.5, 60 min), 101.08%; in data set [2] (pH 4.5, 90 min) it was 102.04%; in data set [2] (pH 6.8, 5 min), 36.18%; in data set [2] (pH 6.8, 10 min), 65.56%. Besides, the Dissolution in data set [2] (pH 6.8, 15 min) amounted to 83.04%; in data set [2] (pH 6.8, 20 min) it was 97.55%; in data set [2] (pH 6.8, 30 min), 99.80%; in data set [2] (pH 6.8, 45 min), 100.04%; in data set [2] (pH 6.8, 60 min), 100.47%; in data set [2] (pH 6.8, 90 min) it was 100.39%.
